Reference: US20030004172A1, “Fused pyrimidinone matrix metalloproteinase inhibitors” (priority 2001, published 2003)
pIC50: −log10 of the molar value.

Target: MMP-13CD (catalytic domain of collagenase-3) (Homo sapiens, UniProt P45452)
Experiment: Thiopeptolide substrate hydrolysis inhibition assay, MMP-13CD
Assay type: biochemical
Details: Table I; thiopeptolide substrate, HEPES pH 7.0, 22° C.; read-out: MMP-13CD IC50
Text: Thiopeptolide substrates show virtually no decomposition or hydrolysis at or below neutral pH in the absence of a matrix metalloproteinase enzyme.

Compound	pIC50
CCOc1cccc(CCNC(=O)c2cc3c(=O)n(Cc4ccccc4)c(=O)n(C)c3s2)c1 [Example 327, 3-Benzyl-1-methyl-2,4-dioxo-1,2,3,4-tetrahydro-thieno[2,3-d]pyrimidine-6-carboxylic acid[2-(3-ethoxy-phenyl)-ethyl]-amide]	5.55
3-Benzyl-1-methyl-2,4-dioxo-1,2,3,4-tetrahydro-thieno[2,3-d]pyrimidine-6-carboxylic acid ((S)-2,2-dimethyl-4-phenyl-1,3-dioxinan-5-yl)-amide [Example 341]	4.85
COc1ccc(CNC(=O)c2cc3c(=O)n(CCS(=O)(=O)c4cccc(C(F)(F)F)c4)c(=O)n(C)c3s2)cc1 [Example 245, 1-Methyl-2,4-dioxo-3-[2-(3-trifluoromethyl-benzenesulfonyl)-ethyl]-1,2,3,4-tetrahydro-thieno[2,3-d]pyrimidine-6-carboxylic acid 4-methoxy-benzylamide]	4.52
Cn1c(=O)n(Cc2ccccc2)c(=O)c2cc(C(=O)OCc3ccc(C(F)(F)F)cc3)sc21 [Example 156, 3-Benzyl-1-methyl-2,4-dioxo-1,2,3,4-tetrahydro-thieno[2,3-d]pyrimidine-6-carboxylic acid 4-trifluoromethyl-benzyl ester]	6.74
COc1cccc(CCNC(=O)c2cc3c(=O)n(Cc4ccccc4)c(=O)n(C)c3s2)c1 [Example 342, 3-Benzyl-1-methyl-2,4-dioxo-1,2,3,4-tetrahydro-thieno[2,3-d]pyrimidine-6-carboxylic acid[2-(3-methoxy-phenyl)-ethyl]-amide]	< 4.00
Cn1c(=O)n(Cc2ccc(C(=O)O)cc2)c(=O)c2cc(C(=O)NCCc3ccncc3)sc21 [Example 82, 4-[1-Methyl-2,4-dioxo-6-(2-pyridin-4-yl-ethylcarbamoyl)-1,4-dihydro-2H-thieno[2,3-d]pyrimidin-3-ylmethyl]-benzoic acid]	5.43
Cn1c(=O)n(Cc2ccccc2)c(=O)c2cc(C(=O)OCCN3CCCC3)sc21 [Example 175, 3-Benzyl-1-methyl-2,4-dioxo-1,2,3,4-tetrahydro-thieno[2,3-d]pyrimidine-6-carboxylic acid 2-pyrrolidin-1-yl-ethyl ester]	< 4.00
Cn1c(=O)n(Cc2cccc(I)c2)c(=O)c2cc(C(=O)OCc3ccccc3)sc21 [Example 109, 3-(3-Iodo-benzyl)-1-methyl-2,4-dioxo-1,2,3,4-tetrahydro-thieno[2,3-d]pyrimidine-6-carboxylic acid benzyl ester]	6.03
Cn1c(=O)n(Cc2ccccc2)c(=O)c2cc(C(=O)NCc3ccccc3)sc21 [Example 11, 3-Benzyl-1-methyl-2,4-dioxo-1,2,3,4-tetrahydro-thieno[2,3-d]pyrimidine-6-carboxylic acid benzyl amide]	6.33
Cn1c(=O)n(Cc2ccccc2)c(=O)c2cc(C(=O)NCc3ccc(F)c(Cl)c3)sc21 [Example 328, 3-Benzyl-1-methyl-2,4-dioxo-1,2,3,4-tetrahydro-thieno[2,3-d]pyrimidine-6-carboxylic acid 3-chloro-4-fluoro-benzylamide]	5.57
C/C=C/Cn1c(=O)c2cc(C(=O)NCc3cccc(OC)c3)sc2n(C)c1=O [Example 284]	5.82
Cn1c(=O)n(CCCc2ccccc2)c(=O)c2cc(C(=O)OCc3ccccc3)sc21 [Example 143, 1-Methyl-2,4-dioxo-3-(3-phenyl-propyl)-1,2,3,4-tetrahydro-thieno[2,3-d]pyrimidine-6-carboxylic acid benzyl ester]	6.55
Cn1c(=O)n(CCCCOc2ccccc2)c(=O)c2cc(C(=O)OCc3ccccc3)sc21 [Example 121, 1-Methyl-2,4-dioxo-3-(4-phenoxy-butyl)-1,2,3,4-tetrahydro-thieno[2,3-d]pyrimidine-6-carboxylic acid benzyl ester]	6.60
C=CCCCCn1c(=O)c2cc(C(=O)OCc3ccccc3)sc2n(C)c1=O [Example 124, 3-Hex-5-enyl-1-methyl-2,4-dioxo-1,2,3,4-tetrahydro-thieno[2,3-d]pyrimidine-6-carboxylic acid benzyl ester]	6.96
Cn1c(=O)n(Cc2ccccc2)c(=O)c2cc(C(=O)OCc3cc4ccccc4o3)sc21 [Example 48, 3-Benzyl-1-methyl-2,4-dioxo-1,2,3,4-tetrahydro-thieno[2,3-d]pyrimidine-6-carboxylic acid benzofuran-2-ylmethyl ester]	5.84
Cn1c(=O)n(Cc2ccccc2)c(=O)c2cc(C(=O)OCC3COc4ccccc4O3)sc21 (stereo not shown) [Example 151, 3-Benzyl-1-methyl-2,4-dioxo-1,2,3,4-tetrahydro-thieno[2,3-d]pyrimidine-6-carboxylic acid 2,3-dihydro-1,4-benzodioxin-2-ylmethyl ester]	< 4.00
COc1ccc(CNC(=O)c2cc3c(=O)n(Cc4ccccc4)c(=O)n(C)c3s2)cc1 [Example 340, 3-Benzyl-1-methyl-2,4-dioxo-1,2,3,4-tetrahydro-thieno[2,3-d]pyrimidine-6-carboxylic acid 4-methoxy-benzylamide]	6.92
Cn1c(=O)n(Cc2ccccc2)c(=O)c2cc(C(=O)NCc3ccccc3-c3ccccc3)sc21 [Example 323, 3-Benzyl-1-methyl-2,4-dioxo-1,2,3,4-tetrahydro-thieno[2,3-d]pyrimidine-6-carboxylic acid (biphenyl-2-ylmethyl)-amide]	< 4.00
COc1ccc(CNC(=O)c2cc3c(=O)n(CC#N)c(=O)n(C)c3s2)cc1 [Example 365, 3-Cyanomethyl-1-methyl-2,4-dioxo-1,2,3,4-tetrahydro-thieno[2,3-d]pyrimidine-6-carboxylic acid 4-methoxy-benzylamide]	5.81
Cn1c(=O)n(Cc2ccccc2)c(=O)c2cc(C(=O)OCCc3ccccc3O)sc21 [Example 159, 3-Benzyl-1-methyl-2,4-dioxo-1,2,3,4-tetrahydro-thieno[2,3-d]pyrimidine-6-carboxylic acid 2-(2-hydroxy-phenyl)-ethyl ester]	4.52
Cn1c(=O)n(Cc2ccccc2)c(=O)c2cc(C(=O)OCCC(c3ccccc3)c3ccccc3)sc21 [Example 205, 3-Benzyl-1-methyl-2,4-dioxo-1,2,3,4-tetrahydro-thieno[2,3-d]pyrimidine-6-carboxylic acid 3,3-diphenyl-propyl ester]	4.72
CCC(C)n1c(=O)c2cc(C(=O)NCc3ccc(OC)cc3)sc2n(C)c1=O (stereo not shown) [Example 262]	5.47
CCn1c(=O)c2cc(C(=O)OCc3ccccc3)sc2n(C)c1=O [Example 142, 3-Ethyl-1-methyl-2,4-dioxo-1,2,3,4-tetrahydro-thieno[2,3-d]pyrimidine-6-carboxylic acid benzyl ester]	6.41
COc1ccc(CNC(=O)c2cc3c(=O)n(CCOc4ccc(Br)cc4)c(=O)n(C)c3s2)cc1 [Example 273]	7.23

The remaining lines, values ahead:

pIC50	Compound
7.82	Cn1c(=O)n(Cc2ccc(F)cc2)c(=O)c2cc(C(=O)OCc3ccccc3)sc21 [Example 118, 3-(4-Fluoro-benzyl)-1-methyl-2,4-dioxo-1,2,3,4-tetrahydro-thieno[2,3-d]pyrimidine-6-carboxylic acid benzyl ester]
8.34	COc1ccc(CNC(=O)c2cc3c(=O)n(Cc4ccc(-c5noc(=O)[nH]5)cc4)c(=O)n(C)c3s2)cc1 [Example 221, 1-Methyl-2,4-dioxo-3-[4-(5-oxo-4,5-dihydro-1,2,4-oxadiazol-3-yl)-benzyl]-1,2,3,4-tetrahydro-thieno[2,3-d]pyrimidine-6-carboxylic acid 4-methoxy-benzylamide]
7.56	Cn1c(=O)n(Cc2ccc3ccccc3c2)c(=O)c2cc(C(=O)OCc3ccccc3)sc21 [Example 312, 1-Methyl-3-naphthalen-2-ylmethyl-2,4-dioxo-1,2,3,4-tetrahydro-thieno[2,3-d]pyrimidine-6-carboxylic acid benzyl ester]
8.52	Cn1c(=O)n(CCS(=O)(=O)c2ccc(Cl)cc2)c(=O)c2cc(C(=O)OCc3ccccc3)sc21 [Example 144, 3-[2-(4-Chloro-benzenesulfonyl)-ethyl]-1-methyl-2,4-dioxo-1,2,3,4-tetrahydro-thieno[2,3-d]pyrimidine-6-carboxylic acid benzyl ester]
7.35	COc1cccc(CNC(=O)c2cc3c(=O)n(Cc4ccc(I)cc4)c(=O)n(C)c3s2)c1 [Example 61, 3-(4-Iodo-benzyl)-1-methyl-2,4-dioxo-1,2,3,4-tetrahydro-thieno[2,3-d]pyrimidine-6-carboxylic acid 3-methoxy-benzylamide]
7.11	CCCCCC#CCn1c(=O)c2cc(C(=O)NCc3ccc(OC)cc3)sc2n(C)c1=O [Example 230, 1-Methyl-3-oct-2-ynyl-2,4-dioxo-1,2,3,4-tetrahydro-thieno[2,3-d]pyrimidine-6-carboxylic acid 4-methoxy-benzylamide]
7.73	COc1cccc(CNC(=O)c2cc3c(=O)n(Cc4ccc(OC(C)(C)C(=O)O)cc4)c(=O)n(C)c3s2)c1 [Example 96, 2-{4-[6-(3-Methoxy-benzylcarbamoyl)-1-methyl-2,4-dioxo-1,4-dihydro-2H-thieno[2,3-d]pyrimidin-3-ylmethyl]-phenoxy}-2-methyl-propionic acid]
7.73	Cn1c(=O)n(Cc2ccccc2)c(=O)c2cc(C(=O)OCc3ccc4occc4c3)sc21 [Example 314, 3-Benzyl-1-methyl-2,4-dioxo-1,2,3,4-tetrahydro-thieno[2,3-d]pyrimidine-6-carboxylic acid benzofuran-5-ylmethyl ester]
7.80	Cn1c(=O)n(Cc2ccccc2)c(=O)c2cc(C(=O)OCc3cccnc3)sc21 [Example 163, 3-Benzyl-1-methyl-2,4-dioxo-1,2,3,4-tetrahydro-thieno[2,3-d]pyrimidine-6-carboxylic acid pyridin-3-ylmethyl ester]
7.25	Cn1c(=O)n(Cc2ccc(C(C)(C)C)cc2)c(=O)c2cc(C(=O)OCc3ccccc3)sc21 [Example 309, 3-(4-tert-Butyl-benzyl)-1-methyl-2,4-dioxo-1,2,3,4-tetrahydro-thieno[2,3-d]pyrimidine-6-carboxylic acid benzyl ester]
